Test results reported in US9040712B2, “Thiadiazole analogs thereof and methods for treating SMN-deficiency-related-conditions” (NOVARTIS AG, priority 2013, dated 2015).

tested on: SMN protein; assay: cellular SMN ELISA (SMN protein elevation); format: cell-based; settings: myoblast cell line derived from SMNdelta7 mouse model; 24 hours compound treatment; concentration range 100 pM-10 uM
Description: A cellular SMN ELISA was used to measure the effects of low molecular weight compounds on SMN protein elevation. Cells from a myoblast cell line derived from the SMNdelta7 mouse model (kind gift from Steve Burden, NYU) were seeded into a 384-well plate at a density of 3000 cells/well and treated with compounds for 24 hours. ELISA capture plates were prepared by coating 384-well plates (Immulon 4HBX) with 0.5 ug/mL of anti-SMN mAb (BD Science, Catalog number 610647) at 4° C. overnight. The plates were washed 5 times with 110 uL of PBS-Tween (0.05% Tween-20, PBST), blocked with 100 uL of 1% BSA in PBST for 2 hours and washed (5 times) with 100 uL of PBST. After 24 hours of compound treatment cells were lysed in a modified RIPA-buffer, on ice for 1 hour. 20 uL of lysate and 20 uL of 1% BSA were then added to the ELISA capture plates and incubated at 4° C. overnight. Plates were washed (5 times) with PBST and then incubated with 1:100 dilution of primary rabbit anti-SMN polyclonal antibody (Santa cruz, Catalog number SC-15320) at room temperature for 1 hour and subsequently washed (5 times) with 110 uL of PBST. This was followed by addition of 1:100 Goat anti-Rabbit IgG-HRP linked (Cell Signaling, Catalog number 7074) secondary antibody for 1 hour. Plates were then washed with PBST and incubated with 40 uL TMB substrate (Cell Signaling, Catalog number 7004L) at room temperature for 1-10 minutes with shaking. The reaction was stopped by addition of 40 uL of stop solution (Cell signaling, Catalog number 7002L) and absorption was measured at 450 nm. Data was reported as fold activation over DMSO control and EC50. ELISA assay condition: compound concentration range 100 pM-10 uM.

SMILES | EC50 | SMN Activity Fold (fold activation over DMSO control)
CN(c1nnc(-c2ccc(-c3ccn[nH]3)c(F)c2F)s1)C1CC(C)(C)NC(C)(C)C1 [Example 49, 5-(2,3-difluoro-4-(1H-pyrazol-5-yl)phenyl)-N-methyl-N-(2,2,6,6-tetramethylpiperidin-4-yl)-1,3,4-thiadiazol-2-amine] | 81 nM | 2.42 fold
CN(c1nnc(-c2cc(F)c(-c3cn[nH]c3)cc2F)s1)C1CC(C)(C)NC(C)(C)C1 [Example 50, 5-(2,5-difluoro-4-(1H-pyrazol-4-yl)phenyl)-N-methyl-N-(2,2,6,6-tetramethylpiperidin-4-yl)-1,3,4-thiadiazol-2-amine] | 20 nM | 3.07 fold
CN(c1nnc(-c2cc(F)c(-c3ccn[nH]3)cc2F)s1)C1CC(C)(C)NC(C)(C)C1 [Example 51, 5-(2,5-difluoro-4-(1H-pyrazol-5-yl)phenyl)-N-methyl-N-(2,2,6,6-tetramethylpiperidin-4-yl)-1,3,4-thiadiazol-2-amine] | 85 nM | 2.86 fold
CN(c1nnc(-c2c(F)cc(-c3cn[nH]c3)cc2F)s1)C1CC(C)(C)NC(C)(C)C1 [Example 52, 5-(2,6-difluoro-4-(1H-pyrazol-4-yl)phenyl)-N-methyl-N-(2,2,6,6-tetramethylpiperidin-4-yl)-1,3,4-thiadiazol-2-amine] | 61 nM | 3.30 fold
Fc1cc(-c2nnc(N3C[C@H]4CNC[C@H]4C3)s2)c(F)cc1-c1cn[nH]c1 [Example 53, 2-(2,5-difluoro-4-(1H-pyrazol-4-yl)phenyl)-5-((3aR,6aS)-hexahydropyrrolo[3,4-c]pyrrol-2(1H)-yl)-1,3,4-thiadiazole] | 70 nM | 2.56 fold
CN(c1nnc(-c2cc(F)c(-c3cn[nH]c3)cc2Cl)s1)C1CC(C)(C)NC(C)(C)C1 [Example 54, 5-(2-chloro-5-fluoro-4-(1H-pyrazol-4-yl)phenyl)-N-methyl-N-(2,2,6,6-tetramethylpiperidin-4-yl)-1,3,4-thiadiazol-2-amine] | 47 nM | 3.16 fold
CN(c1nnc(-c2ncc(-c3cn[nH]c3)cc2F)s1)C1CC(C)(C)NC(C)(C)C1 [Example 55, 5-(3-fluoro-5-(1H-pyrazol-4-yl)pyridin-2-yl)-N-methyl-N-(2,2,6,6-tetramethylpiperidin-4-yl)-1,3,4-thiadiazol-2-amine] | 1010 nM | 2.75 fold
CN(c1nnc(-c2ccc(-c3ccnc(N)n3)cc2Cl)s1)C1CC(C)(C)NC(C)(C)C1 [Example 56, 5-(4-(2-aminopyrimidin-4-yl)-2-chlorophenyl)-N-methyl-N-(2,2,6,6-tetramethylpiperidin-4-yl)-1,3,4-thiadiazol-2-amine] | 41 nM | 2.47 fold
CN(c1nnc(-c2cc(-c3ccnc(N)n3)ccc2Cl)s1)C1CC(C)(C)NC(C)(C)C1 [Example 57, 5-(5-(2-aminopyrimidin-4-yl)-2-chlorophenyl)-N-methyl-N-(2,2,6,6-tetramethylpiperidin-4-yl)-1,3,4-thiadiazol-2-amine] | 94 nM | 2.55 fold
Cc1nc(C)c(-c2cc(F)c(-c3nnc(N(C)C4CC(C)(C)NC(C)(C)C4)s3)cc2F)s1 [Example 58, 5-(4-(2,4-dimethylthiazol-5-yl)-2,5-difluorophenyl)-N-methyl-N-(2,2,6,6-tetramethylpiperidin-4-yl)-1,3,4-thiadiazol-2-amine] | 386 nM | 2.41 fold
Cc1nc(C)c(-c2ccc(-c3nnc(N(C)C4CC(C)(C)NC(C)(C)C4)s3)c(F)c2F)s1 [Example 59, 5-(4-(2,4-dimethylthiazol-5-yl)-2,3-difluorophenyl)-N-methyl-N-(2,2,6,6-tetramethylpiperidin-4-yl)-1,3,4-thiadiazol-2-amine] | 1500 nM | 2.69 fold
CN(c1nnc(-c2c(O)cc(-c3ccn(C)c(=O)c3)cc2OC(F)(F)F)s1)C1CC(C)(C)NC(C)(C)C1 [Example 60, 4-(3-hydroxy-4-(5-(methyl(2,2,6,6-tetra-methylpiperidin-4-yl)amino)-1,3,4-thiadiazol-2-yl)-5-(trifluoromethoxy)phenyl)-1-methylpyridin-2(1H)-one] | 53 nM | 2.69 fold
COc1cc(-c2cn[nH]c2)cc(F)c1-c1nnc(N(C)C2CC(C)(C)NC(C)(C)C2)s1 [Example 61, 5-(2-fluoro-6-methoxy-4-(1H-pyrazol-4-yl)phenyl)-N-methyl-N-(2,2,6,6-tetramethylpiperidin-4-yl)-1,3,4-thiadiazol-2-amine] | 95 nM | 2.36 fold
COc1cc(-c2cn[nH]c2)cc(F)c1-c1nnc(N2C[C@H]3CN(C)C[C@H]3C2)s1 [Example 62, 2-(2-fluoro-6-methoxy-4-(1H-pyrazol-4-yl)phenyl)-5-((3aR,6aS)-5-methylhexahydro-pyrrolo[3,4-c]pyrrol-2(1H)-yl)-1,3,4-thiadiazole] | 3640 nM | 2.01 fold
COc1cc(-c2cn[nH]c2)c(F)c(F)c1-c1nnc(N(C)C2CC(C)(C)NC(C)(C)C2)s1 [Example 63, 5-(2,3-difluoro-6-methoxy-4-(1H-pyrazol-4-yl)phenyl)-N-methyl-N-(2,2,6,6-tetramethyl-piperidin-4-yl)-1,3,4-thiadiazol-2-amine] | 47 nM | 3.13 fold
COc1ccc2c(c1)CCN(c1nnc(N(C)C3CC(C)(C)NC(C)(C)C3)s1)C2=O [Example 64, 6-methoxy-2-(5-(methyl(2,2,6,6-tetramethylpiperidin-4-yl)amino)-1,3,4-thiadiazol-2-yl)-3,4-dihydroisoquinolin-1(2H)-one] | 1620 nM | 2.51 fold
CN(c1nnc(-c2ccc(-n3cccn3)cc2Cl)s1)C1CC(C)(C)NC(C)(C)C1 [Example 65, 5-(2-chloro-4-(1H-pyrazol-1-yl)phenyl)-N-methyl-N-(2,2,6,6-tetramethylpiperidin-4-yl)-1,3,4-thiadiazol-2-amine] | 273 nM | 2.37 fold
CN(c1nnc(-c2ccc(-n3ccnn3)cc2Cl)s1)C1CC(C)(C)NC(C)(C)C1 [Example 66, 5-(2-chloro-4-(1H-1,2,3-triazol-1-yl)phenyl)-N-methyl-N-(2,2,6,6-tetramethylpiperidin-4-yl)-1,3,4-thiadiazol-2-amine] | 130 nM | 2.32 fold
CN(c1nnc(-c2ccc(-n3nccn3)cc2Cl)s1)C1CC(C)(C)NC(C)(C)C1 [Example 67, 5-(2-chloro-4-(2H-1,2,3-triazol-2-yl)phenyl)-N-methyl-N-(2,2,6,6-tetramethylpiperidin-4-yl)-1,3,4-thiadiazol-2-amine] | 159 nM | 2.45 fold
CN(c1nnc(-c2ccc(-n3cncn3)cc2Cl)s1)C1CC(C)(C)NC(C)(C)C1 [Example 68, 5-(2-chloro-4-(1H-1,2,4-triazol-1-yl)phenyl)-N-methyl-N-(2,2,6,6-tetramethylpiperidin-4-yl)-1,3,4-thiadiazol-2-amine] | 79 nM | 2.64 fold
CN(c1nnc(-c2ccc(-n3ccc(N)n3)cc2Cl)s1)C1CC(C)(C)NC(C)(C)C1 [Example 69, 5-(4-(3-amino-1H-pyrazol-1-yl)-2-chlorophenyl)-N-methyl-N-(2,2,6,6-tetramethylpiperidin-4-yl)-1,3,4-thiadiazol-2-amine] | 171 nM | 2.44 fold
CN1C[C@@H]2CN(c3nnc(-c4ccc(-n5ccnc5)cc4Cl)s3)C[C@@H]2C1 [Example 70, 2-(2-chloro-4-(1H-imidazol-1-yl)phenyl)-5-((3aR,6aS)-5-methylhexahydropyrrolo[3,4-c]pyrrol-2(1H)-yl)-1,3,4-thiadiazole] | 2570 nM | 2.17 fold
CN(c1nnc(-c2ccc(-n3ccnc3)cc2Cl)s1)C1CC(C)(C)NC(C)(C)C1 [Example 71, 5-(2-chloro-4-(1H-imidazol-1-yl)phenyl)-N-methyl-N-(2,2,6,6-tetramethylpiperidin-4-yl)-1,3,4-thiadiazol-2-amine] | 32 nM | 2.40 fold
CN(c1nnc(-c2ccc(-n3ccnc3)cc2F)s1)C1CC(C)(C)NC(C)(C)C1 [Example 72, 5-(2-fluoro-4-(1H-imidazol-1-yl)phenyl)-N-methyl-N-(2,2,6,6-tetramethylpiperidin-4-yl)-1,3,4-thiadiazol-2-amine] | 91 nM | 2.50 fold
